Test results reported in article PMC10609152, “Synthesis, Computational, and Anticancer In Vitro Investigations of Aminobenzylnaphthols Derived from 2-Naphtol, Benzaldehydes, and α-Aminoacids via the Betti Reaction” (Molecules, 2023).
Read-outs that look alike come from different tables or passages of the source.

Key:
[1] = tested on: A549; parameters: method as in doi:10.31083/j.jmcm.2019.02.7181; conditions: cited from earlier work
[2] = tested on: HBL100; parameters: method as in doi:10.31083/j.jmcm.2019.02.7181; conditions: cited from earlier work
[3] = tested on: HeLa; parameters: method as in doi:10.31083/j.jmcm.2019.02.7181; conditions: cited from earlier work
[4] = tested on: SW1573; parameters: method as in doi:10.31083/j.jmcm.2019.02.7181; conditions: cited from earlier work
[5] = tested on: T47D; parameters: method as in doi:10.31083/j.jmcm.2019.02.7181; conditions: cited from earlier work
[6] = tested on: BxPC-3 cells; assay: MTT assay, BxPC-3; type: cell-based; conditions: Homo sapiens
Text: (§1) The MTT assay, also known as the 3-(4,5-dimethylthiazol-2-yl)-2,5-diphenyltetrazolium bromide assay, is a colorimetric assay used in biological and biomedical research to determine cell viability and proliferation. The MTT assay works on the assumption that live cells with active metabolism convert MTT into formazan crystals. These crystals are insoluble; however, they can be dissolved in an organic solvent such as DMSO to produce a colorful solution. The color intensity is proportional to the number of viable cells present in the culture.
(§2) BxPC-3, HT-29, and WI-38 cells were seeded on 96-well plates at a density of approximately 8–10 × 10^3 cells per 100 µL medium/well. Cells were allowed to grow for 24 h in controlled conditions (37 °C; 5% CO2). […] The experimental design included nontreated controls and blanks (wells without cells). Following 24 or 72 h of culture with the investigated compounds, 20 μL of MTT tetrazolium salt (5 mg/mL in PBS) was added to each well, and the plates were incubated for 3 h in a humidified environment (37 °C; 5% CO2). The solutions were withdrawn after incubation, and 100 μL of DMSO was added to dissolve the formazan complexes. Afterward, a spectrophotometer (microplate reader Power Wave XS BioTek Instruments, Inc., Winooski, VT, USA) reading at 570 nm was conducted. The experiments were carried out in duplicates.
(§3) GraphPad Prism 7 software was used to calculate the concentration of an MMZ compound reflecting a 50% growth inhibition (IC50). IC50 is defined as a concentration of tested compound that leads to a reduction in cell pool viability by 50% compared to the negative control (accepted as 100%). % cell viability=Absorbance value of treated cells−Absorbance value of blank/(Absorbance value of untreated cells−Absorbance value of blank)×100%

[7] = tested on: HT-29 cells; assay: MTT assay, HT-29; type: cell-based; conditions: Homo sapiens
Text: as §1, §2, §3

[8] = tested on: BxPC-3 cells; assay: AO/EB double staining, BxPC-3; type: cell-based; conditions: BxPC-3, IC50 concentration, 72 h
Description: (§4) BxPC-3 and HT-29 cells were plated at a density of 5 × 10^4 cells per well in 12-well plates. After 24 h, the cells were treated with MMZ-45AA and MMZ-140C at concentrations corresponding to their IC50 values obtained from the MTT assay. The cells were exposed to the compounds for 72 h. Following the incubation period, the cells were treated with a mixture of fluorochromes (100 µM AO/EB in a 1:1 ratio, v/v) for 5 min at 37 °C in the absence of light.
(§5) The staining technique allowed for the differentiation of viable, apoptotic, and necrotic cells based on their varying uptake of fluorescent DNA-binding dyes and the degree of chromatin condensation in the stained nuclei. A fluorescence microscope (Olympus BX60 F5, Olympus Optical Co., Ltd., Nagano, Japan) with an excitation wavelength of 360 nm was used to analyze the cells. The results were obtained from three independent experiments.

[9] = tested on: HT-29 cells; assay: AO/EB double staining, HT-29; type: cell-based; conditions: HT-29, IC50 concentration, 72 h
Description: as §4, §5

[10] = tested on: BxPC-3 cells; assay: Annexin V-FITC/PI flow cytometry, BxPC-3; type: cell-based; conditions: Annexin V-FITC, BxPC-3, IC50 concentration, 72 h
Description: (§6) The Annexin V-FITC Apoptosis Detection Kit was utilized to assess the induction of apoptosis following 72 h incubation with the tested MMZ compounds. BxPC-3 and HT-29 cells were plated at a density of 4 × 10^5 cells in 6-well plates. After 24 h, the cells were exposed to IC50 concentrations of MMZ-45AA and […], determined in the MTT assay. The experimental setup included a vehicle control with a final solvent concentration of less than 0.5% v/v DMSO, and cells treated with 2 µM SN-38 (the active metabolite of irinotecan) as a positive control. The cells were then incubated for an additional 72 h at 37 °C with 5% CO2.
(§7) Following the exposure period, the cells were trypsinized, transferred to cytometric tubes, and allowed to incubate for 40 min. Subsequently, they were centrifuged at 1400 rpm for 10 min at 4 °C. The supernatant was then removed, and the cell pellet was diluted in 1 mL PBS. The remaining steps were carried out according to the instructions provided by the manufacturer of the Annexin V-FITC Apoptosis Detection Kit. The results reported in this study were obtained from three independent experiments

[11] = tested on: HT-29 cells; assay: Annexin V-FITC/PI flow cytometry, HT-29; type: cell-based; conditions: Annexin V-FITC, HT-29, IC50 concentration, 72 h
Description: as §6, §7

[12] = MTT cell viability, WI-38 normal fibroblasts; type: cell-based; conditions: human, WI-38 normal fibroblast cells, read-out: % cell viability ± SD; for viability at 72 h: WI-38, 72 h
Description: as §2, §3

[13] = BxPC-3, 24-h MTT, independent experiment 1, read-out: IC50(1)
[14] = BxPC-3, 24-h MTT, independent experiment 2, read-out: IC50(2)
[15] = BxPC-3, 24-h MTT, read-out: Mean IC50 ± SD
[16] = BxPC-3, 72-h MTT, independent experiment 1, read-out: IC50(1)
[17] = BxPC-3, 72-h MTT, independent experiment 2, read-out: IC50(2)
[18] = BxPC-3, 72-h MTT, read-out: Mean IC50 ± SD
[19] = HT-29, 24-h MTT, independent experiment 1, read-out: IC50(1)
[20] = HT-29, 24-h MTT, independent experiment 2, read-out: IC50(2)
[21] = HT-29, 24-h MTT, read-out: Mean IC50 ± SD
[22] = HT-29, 72-h MTT, independent experiment 1, read-out: IC50(1)
[23] = HT-29, 72-h MTT, independent experiment 2, read-out: IC50(2)
[24] = HT-29, 72-h MTT, read-out: Mean IC50 ± SD

SMILES	GI50 [1]	IC50 [6, 13]	IC50 [6, 14]	IC50 [6, 15]	IC50 [6, 16]	IC50 [6, 17]	IC50 [6, 18]	IC50 [7, 19]	IC50 [7, 20]	IC50 [7, 21]	IC50 [7, 22]	IC50 [7, 23]	IC50 [7, 24]	% of apoptotic cells [8]	% of apoptotic cells [9]	% of apoptotic cells [10]	% of apoptotic cells [11]	other results
N.N.[Cl][Pt][Cl] [cisplatin]	4.9 µM	–	–	–	–	–	–	–	–	–	–	–	–	–	–	–	–	–
N#Cc1ccc(C(NCc2ccccc2)c2cccc3ccccc23)cc1 (centres unmarked) [compound 14t]	–	–	–	–	–	–	–	–	–	–	–	–	–	–	–	–	–	GI50 [2]: 5 µM; GI50 [3]: 4.1 µM; GI50 [4]: 6.3 µM; GI50 [5]: 8.4 µM
COC(=O)[C@H](Cc1ccccc1)N[C@@H](c1ccccc1)c1c(O)ccc2ccccc12 (mixture of isomers) [MMZ-45AA, (S,S) and (R,R)-methyl ((2-hydroxynaphthalen-1-yl)(phenyl)methyl)-L-phenylalaninate]	–	58.1 µM	38 µM	48 ± 14.2 µM	12.1 µM	14.4 µM	13.3 µM	40.3 µM	48.1 µM	44.2 ± 5.49 µM	12.2 µM	11.9 µM	12.1 ± 0.247 µM	21.9 ± 3.4%	15.93 ± 3%	38.7 ± 5.43%	24.23 ± 1.1%	–
COC(=O)[C@@H]1CCCN1[C@@H](c1ccccc1)c1c(O)ccc2ccccc12 (mixture of isomers) [MMZ-140C, (S,S) and (R,R)-methyl ((2-hydroxynaphthalen-1-yl)(phenyl)methyl)-L-prolinate]	–	23.5 µM	36.8 µM	30.2 ± 9.39 µM	31.7 µM	33.2 µM	32.4 ± 1.09 µM	35.5 µM	40 µM	37.8 ± 3.2 µM	9.01 µM	14.1 µM	11.6 µM	No statistically significant changes	11.73 ± 0.38%	33.1 ± 1.12%	15.13 ± 1%	viability at 24 h ([12]; WI-38, 24 h, compound at IC50 concentration obtained for HT-29 cells): 82.9 ± 2.06%; viability at 72 h ([12]; compound at IC50 concentration estimated for BxPC-3 cells): 82.3 ± 6.96%; viability at 72 h ([12]; compound at IC50 concentration obtained for HT-29 cells): 84.2 ± 2.56%
Brc1ccc(C(c2cccc3ccccc23)N2CCCC2)cc1 (centres unmarked) [compound 14j]	7.9 µM	–	–	–	–	–	–	–	–	–	–	–	–	–	–	–	–	–
